According to the supplement of paper PMC10307832:

Key:
Assay in all cases: relative viability (nuclei count vs DMSO), 5 days (fraction); higher = more cells survive
Bortezomib + Lapatinib = compound: CC(C)C[C@H](NC(=O)[C@H](Cc1ccccc1)NC(=O)c1cnccn1)B(O)O [Bortezomib] + CS(=O)(=O)CCNCc1ccc(-c2ccc3ncnc(Nc4ccc(OCc5cccc(F)c5)c(Cl)c4)c3c2)o1 [Lapatinib] (partner 2 µM)
Outline: (§1)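 Five library-drug doses in √10 steps were combined with a fixed anchor-drug dose, or a single drug was given alone, by pin tool to lung cancer cell lines in 1536-well plates the day after seeding. Nuclei were stained and counted after 5 days. Relative viability is the nuclei count in treated wells over that in vehicle wells, taken as the median of duplicate plates.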

Bortezomib + Vorinostat = compound: CC(C)C[C@H](NC(=O)[C@H](Cc1ccccc1)NC(=O)c1cnccn1)B(O)O [Bortezomib] + O=C(CCCCCCC(=O)Nc1ccccc1)NO [Vorinostat] (partner 1 µM)
Outline: as §1

[1] = compound: CC1=CC(=NN1)NC2=CC(=NC(=N2)/C=C/C3=CC=CC=C3)N4CCN(CC4)C + Nc1ncn([C@H]2C[C@H](O)[C@@H](CO)O2)c(=O)n1 [Decitabine] (partner 2 µM)
Outline: as §1

Obatoclax + Lapatinib = compound: COC1=CC(c2cc3ccccc3[nH]2)=N/C1=C\c1[nH]c(C)cc1C [Obatoclax] + CS(=O)(=O)CCNCc1ccc(-c2ccc3ncnc(Nc4ccc(OCc5cccc(F)c5)c(Cl)c4)c3c2)o1 [Lapatinib] (partner 2 µM)
Outline: as §1

| Cell Line | relative viability (Bortezomib + Lapatinib; first compound 0.0002 µM) | relative viability (Bortezomib + Lapatinib; first compound 0.000632 µM) | relative viability (Bortezomib + Lapatinib; first compound 0.002 µM) | relative viability (Bortezomib + Lapatinib; first compound 0.006325 µM) | relative viability (Bortezomib + Lapatinib; first compound 0.02 µM) | relative viability (Bortezomib + Vorinostat; first compound 0.0002 µM) | relative viability (Bortezomib + Vorinostat; first compound 0.000632 µM) | relative viability (Bortezomib + Vorinostat; first compound 0.002 µM) | relative viability (Bortezomib + Vorinostat; first compound 0.006325 µM) | relative viability (Bortezomib + Vorinostat; first compound 0.02 µM) | relative viability ([1]; first compound 0.08 µM) | relative viability ([1]; first compound 0.253 µM) | relative viability ([1]; first compound 0.8 µM) | relative viability ([1]; first compound 2.53 µM) | relative viability ([1]; first compound 8 µM) | relative viability (Obatoclax + Lapatinib; first compound 0.01 µM) | relative viability (Obatoclax + Lapatinib; first compound 0.03162 µM) | relative viability (Obatoclax + Lapatinib; first compound 0.1 µM) | relative viability (Obatoclax + Lapatinib; first compound 0.3162 µM) | relative viability (Obatoclax + Lapatinib; first compound 1 µM) |
| --- | --- | --- | --- | --- | --- | --- | --- | --- | --- | --- | --- | --- | --- | --- | --- | --- | --- | --- | --- | --- |
| A-427 | 1.05 | 0.975 | 1.11 | 1.02 | 0.19 | 0.845 | 0.878 | 0.833 | 0.185 | 0.153 | 0.603 | 0.582 | 0.568 | 0.489 | 0.213 | 1.08 | 0.884 | 1.03 | 1.09 | 0.992 |
| HCC-366 | 0.861 | 1.01 | 1.03 | 0.875 | 0.0176 | 0.352 | 0.377 | 0.33 | 0.113 | 0.026 | 0.35 | 0.368 | 0.318 | 0.0513 | 0.0463 | 1.02 | 1.05 | 0.921 | 0.636 | 0.379 |
| HCC-78 | 0.899 | 0.791 | 0.715 | 0.826 | 0.153 | 0.453 | 0.447 | 0.263 | 0.281 | 0.276 | 0.585 | 0.624 | 0.694 | 0.472 | 0.292 | 0.937 | 0.64 | – | 0.579 | 0.844 |
| PC-14 | 0.323 | 0.356 | 0.354 | 0.239 | 0.0862 | 0.778 | 0.717 | 0.365 | 0.0298 | 0.0377 | 0.179 | 0.2 | 0.253 | 0.0601 | 0.0537 | 0.297 | 0.309 | 0.334 | 0.257 | 0.301 |
| NCI-H2087 | 0.897 | 0.951 | 0.541 | 0.114 | 0.0853 | 0.465 | 0.886 | 0.555 | 0.0577 | 0.0279 | 0.294 | 0.193 | 0.265 | 0.0921 | 0.0912 | 0.954 | 0.901 | 0.776 | 0.623 | 0.304 |
| HOP-62 | 0.953 | 1.01 | 1.04 | 0.283 | 0.0578 | 0.589 | 0.654 | 0.6 | 0.131 | 0.0601 | 0.203 | 0.191 | 0.212 | 0.197 | 0.166 | 0.963 | 0.909 | 0.976 | 1.04 | 1.05 |
| EKVX | 0.205 | 0.261 | 0.208 | 0.204 | 0.0816 | 0.68 | 0.805 | 0.65 | 0.518 | 0.198 | 0.299 | 0.297 | 0.374 | 0.331 | 0.152 | 0.208 | 0.19 | 0.215 | 0.199 | 0.189 |
| EMC-BAC-2 | 0.902 | 0.923 | 0.966 | 0.652 | 0.153 | 0.402 | 0.467 | 0.409 | 0.155 | 0.143 | 0.989 | 0.91 | 0.946 | 0.689 | 0.282 | 0.878 | 0.908 | 0.886 | 0.74 | 0.897 |
